ChEMBL document CHEMBL1150077, “Phospholipase D inhibitors from a Myrsine species” (J Nat Prod, 1995)

Key:
[1] = Inhibition of fMLP-stimulated phospholipase D in human HL60 cells; assay type: cell-based; conditions: hl-60
[2] = Inhibition of PMA-stimulated phospholipase D in human HL60 cells; assay type: cell-based; conditions: hl-60

Row | IC50 [1] [µM] | IC50 [2] [µM] | Structure (SMILES)
1 | 24 | 2 | C[C@H]1O[C@@H](O[C@H]2[C@H](O[C@H]3CO[C@@H](O[C@H]4CC[C@]5(C)[C@H]6CC[C@]78OC[C@@]9(CCC(C)(C)C[C@H]97)[C@H](O)C[C@@]8(C)[C@]6(C)CC[C@H]5C4(C)C)[C@H](O[C@@H]4O[C@H](CO)[C@@H](O)[C@H](O)[C@H]4O)[C@H]3O)O[C@H](CO)[C@@H](O)[C@@H]2O)[C@@H](O)[C@@H](O)[C@@H]1O
2 | 8 | 3 | CC1(C)CC[C@]23CO[C@@]4(CC[C@@H]5[C@@]6(C)CC[C@H](O[C@@H]7OC[C@H](O[C@@H]8O[C@H](CO)[C@@H](O)[C@H](O)[C@H]8O[C@@H]8OC[C@@H](O)[C@H](O)[C@H]8O)[C@H](O)[C@H]7O[C@@H]7O[C@H](CO)[C@@H](O)[C@H](O)[C@H]7O)C(C)(C)[C@@H]6CC[C@@]5(C)[C@]4(C)C[C@H]2O)[C@@H]3C1 [LYSIKOKIANOSIDE 1]
